Test results reported in patent US10376520B2, “Methods for the treatment of cardiovascular disorders” (Galapagos NV, priority 2015, dated 2019).

Test system: RA patients
Experiment: LDL determination, Study 1 (RA patients, add-on to MTX)
Type: in vivo, human
Experimental: Double-blind, placebo-controlled add on study in subjects with moderately to severely active RA who have an inadequate response to methotrexate (MTX) (oral or parenteral).
595 subjects randomized to one of 6 dose regimens of Compound 1 (dosed as a [Compound 1:HCl:3H2O]) (3 dose levels administered either once or twice daily) or placebo on top of each subject's stable dose of MTX.
Compound 1 (dosed as a [Compound 1:HCl:3H2O]) is dosed for twelve weeks once daily (q.d.) (50 mg, 100 mg or 200 mg) or twice daily (b.i.d.) (25 mg, 50 mg or 100 mg); or placebo.
At Week 12, the subjects on placebo who have not achieved 20% improvement in swollen joint count (SJC66) and tender joint count (TJC68) are re-randomized automatically to receive Compound 1 (dosed as a [Compound 1:HCl:3H2O]) either at 100 mg q.d. or 50 mg b.i.d. doses in a blinded fashion; subjects on 50 mg q.d. who have not achieved 20% improvement in SJC66 and TJC68 will be assigned to 100 mg q.d. and subjects on 25 mg b.i.d. that have not achieved a 20% improvement in SJC66 and TJC68 will be assigned to 50 mg b.i.d. Subjects who switch treatment at week 12 are handled as if they discontinued at week 12 for the purpose of statistical analysis, whereas subjects in the other groups will maintain their randomized treatment until Week 24.
The determination of [LDL]-cholesterol is made using an automated method taking advantage of the selective micellary solubilization of [LDL]-cholesterol by a nonionic detergent and the interaction of a sugar compound and lipoproteins (VLDL and chylomicrons).
When a detergent is included in the enzymatic method for cholesterol determination (cholesterol esterase, cholesterol oxidase coupling reaction), the relative reactivities of cholesterol in the lipoprotein fractions increase in this order: [HDL]<chylomicrons <VLDL <[LDL]. In the presence of Mg^2+, a sugar compound markedly reduces the enzymatic reaction of the cholesterol measurement in VLDL and chylomicrons. The combination of a sugar compound with detergent enables the selective determination of [LDL]-cholesterol in serum. (Friedewald et al., 1972; Rifai et al., 1992)
Homogeneous enzymatic colorimetric assay.
In the presence of peroxidase, the hydrogen peroxide generated reacts with 4-aminoantipyrine and Sodium N-(2-hydroxy-3-sulfopropyl)-3,5-dimethoxyaniline (HSDA) to form a purple-blue dye.
The color intensity of this dye is directly proportional to the cholesterol concentration and is measured photometrically.
Human serum and plasma samples [LDL] determination was done on a Roche/Hitachi Cobas c 701/702 system which automatically calculate the analyte concentration of each sample. Samples containing precipitates are centrifuged before performing the assay.

[1] = Study 1 12 weeks results, 200 mg q.d., week 2
[2] = Study 1 12 weeks results, 200 mg q.d., week 4
[3] = Study 1 12 weeks results, 200 mg q.d., week 8
[4] = Study 1 12 weeks results, 200 mg q.d., week 12
[5] = Study 1 12 weeks results, 2 x 25 mg b.i.d., week 1
[6] = Study 1 12 weeks results, 2 x 25 mg b.i.d., week 2
[7] = Study 1 12 weeks results, 2 x 25 mg b.i.d., week 4
[8] = Study 1 12 weeks results, 2 x 25 mg b.i.d., week 8
[9] = Study 1 12 weeks results, 2 x 25 mg b.i.d., week 12
[10] = Study 1 12 weeks results, 2 x 50 mg b.i.d., week 1
[11] = Study 1 12 weeks results, 2 x 50 mg b.i.d., week 2
[12] = Study 1 12 weeks results, 2 x 50 mg b.i.d., week 4
[13] = Study 1 12 weeks results, 2 x 50 mg b.i.d., week 8
[14] = Study 1 12 weeks results, 2 x 50 mg b.i.d., week 12
[15] = Study 1 12 weeks results, 2 x 100 mg b.i.d., week 1
[16] = Study 1 12 weeks results, 2 x 100 mg b.i.d., week 2
[17] = Study 1 12 weeks results, 2 x 100 mg b.i.d., week 4
[18] = Study 1 12 weeks results, 2 x 100 mg b.i.d., week 8
[19] = Study 1 12 weeks results, 2 x 100 mg b.i.d., week 12
[20] = Study 1 24 weeks results, continued 50 mg q.d., week 1
[21] = Study 1 24 weeks results, continued 50 mg q.d., week 2
[22] = Study 1 24 weeks results, continued 50 mg q.d., week 4
[23] = Study 1 24 weeks results, continued 50 mg q.d., week 8
[24] = Study 1 24 weeks results, continued 50 mg q.d., week 12
[25] = Study 1 24 weeks results, continued 50 mg q.d., week 16
[26] = Study 1 24 weeks results, continued 50 mg q.d., week 20
[27] = Study 1 24 weeks results, continued 50 mg q.d., week 24
[28] = Study 1 24 weeks results, continued 100 mg q.d., week 1
[29] = Study 1 24 weeks results, continued 100 mg q.d., week 2
[30] = Study 1 24 weeks results, continued 100 mg q.d., week 4
[31] = Study 1 24 weeks results, continued 100 mg q.d., week 8
[32] = Study 1 24 weeks results, continued 100 mg q.d., week 12
[33] = Study 1 24 weeks results, continued 100 mg q.d., week 16
[34] = Study 1 24 weeks results, continued 100 mg q.d., week 20
[35] = Study 1 24 weeks results, continued 100 mg q.d., week 24
[36] = Study 1 24 weeks results, continued 200 mg q.d., week 24
[37] = Study 1 24 weeks results, placebo switched to 50 mg b.i.d at week 12, week 16
[38] = Study 1 24 weeks results, placebo switched to 50 mg b.i.d at week 12, week 20
[39] = Study 1 24 weeks results, placebo switched to 50 mg b.i.d at week 12, week 24

In the case of `O=C(Nc1nc2cccc(-c3ccc(CN4CCS(=O)(=O)CC4)cc3)n2n1)C1CC1` [Compound 1, cyclopropanecarboxylic acid {5-[4-(1,1-dioxo-thiomorpholin-4-ylmethyl)-phenyl]-[1,2,4]triazolo[1,5-a]pyridin-2yl}-amide], the “[LDL] Mean CFB” value [1] is reported as 0.11 mmol/L, the “[LDL] Median CFB” value [1] is reported as 0.13 mmol/L and the “[LDL] Mean CFB” value [2] is reported as 0.13 mmol/L. For the same compound, the “[LDL] Median CFB” value [2] was 0.09 mmol/L, the “[LDL] Mean CFB” value [3] was 0.16 mmol/L and the “[LDL] Median CFB” value [3] was 0.18 mmol/L. The “[LDL] Mean CFB” value [4] was 0.19 mmol/L, the “[LDL] Median CFB” value [4] was 0.14 mmol/L and the “[LDL] Mean CFB” value [5] was 0.04 mmol/L. For the same compound, the “[LDL] Median CFB” value [5] was 0.05 mmol/L, the “[LDL] Mean CFB” value [6] was 0.04 mmol/L and the “[LDL] Median CFB” value [6] was 0.09 mmol/L. For the same compound, the “[LDL] Mean CFB” value [7] was -0.01 mmol/L, the “[LDL] Median CFB” value [7] was -0.01 mmol/L and the “[LDL] Mean CFB” value [8] was -0.05 mmol/L. For the same compound, the “[LDL] Median CFB” value [8] was 0.01 mmol/L, the “[LDL] Mean CFB” value [9] was 0.07 mmol/L and the “[LDL] Median CFB” value [9] was 0.05 mmol/L. For the same compound, the “[LDL] Mean CFB” value [10] was 0.10 mmol/L, the “[LDL] Median CFB” value [10] was 0.17 mmol/L and the “[LDL] Mean CFB” value [11] was 0.04 mmol/L. For the same compound, the “[LDL] Median CFB” value [11] was 0.1 mmol/L, the “[LDL] Mean CFB” value [12] was 0.14 mmol/L and the “[LDL] Median CFB” value [12] was 0.05 mmol/L. The “[LDL] Mean CFB” value [13] was 0.07 mmol/L, the “[LDL] Median CFB” value [13] was 0.10 mmol/L and the “[LDL] Mean CFB” value [14] was 0.05 mmol/L. For the same compound, the “[LDL] Median CFB” value [14] was 0.02 mmol/L, the “[LDL] Mean CFB” value [15] was 0.20 mmol/L and the “[LDL] Median CFB” value [15] was 0.18 mmol/L. For the same compound, the “[LDL] Mean CFB” value [16] was 0.15 mmol/L, the “[LDL] Median CFB” value [16] was 0.08 mmol/L and the “[LDL] Mean CFB” value [17] was 0.17 mmol/L. For the same compound, the “[LDL] Median CFB” value [17] was 0.12 mmol/L, the “[LDL] Mean CFB” value [18] was 0.31 mmol/L and the “[LDL] Median CFB” value [18] was 0.22 mmol/L. For the same compound, the “[LDL] Mean CFB” value [19] was 0.27 mmol/L, the “[LDL] Median CFB” value [19] was 0.26 mmol/L and the “[LDL] Mean CFB” value [20] was 0.00 mmol/L. For the same compound, the “[LDL] Median CFB” value [20] was -0.01 mmol/L, the “[LDL] Mean CFB” value [21] was -0.02 mmol/L and the “[LDL] Median CFB” value [21] was 0.02 mmol/L. The “[LDL] Mean CFB” value [22] was 0.02 mmol/L, the “[LDL] Median CFB” value [22] was -0.01 mmol/L and the “[LDL] Mean CFB” value [23] was 0.08 mmol/L. The “[LDL] Median CFB” value [23] was 0.13 mmol/L, the “[LDL] Mean CFB” value [24] was 0.16 mmol/L and the “[LDL] Median CFB” value [24] was 0.14 mmol/L. The “[LDL] Mean CFB” value [25] was 0.15 mmol/L, the “[LDL] Median CFB” value [25] was 0.12 mmol/L and the “[LDL] Mean CFB” value [26] was 0.14 mmol/L. For the same compound, the “[LDL] Median CFB” value [26] was 0.20 mmol/L, the “[LDL] Mean CFB” value [27] was 0.13 mmol/L and the “[LDL] Median CFB” value [27] was 0.14 mmol/L. The “[LDL] Mean CFB” value [28] was 0.11 mmol/L, the “[LDL] Median CFB” value [28] was 0.10 mmol/L and the “[LDL] Mean CFB” value [29] was 0.01 mmol/L. The “[LDL] Median CFB” value [29] was 0.02 mmol/L, the “[LDL] Mean CFB” value [30] was 0.13 mmol/L and the “[LDL] Median CFB” value [30] was 0.13 mmol/L. The “[LDL] Mean CFB” value [31] was 0.03 mmol/L, the “[LDL] Median CFB” value [31] was 0.04 mmol/L and the “[LDL] Mean CFB” value [32] was 0.12 mmol/L. The “[LDL] Median CFB” value [32] was 0.13 mmol/L, the “[LDL] Mean CFB” value [33] was -0.01 mmol/L and the “[LDL] Median CFB” value [33] was 0.03 mmol/L. For the same compound, the “[LDL] Mean CFB” value [34] was -0.01 mmol/L, the “[LDL] Median CFB” value [34] was 0.02 mmol/L and the “[LDL] Mean CFB” value [35] was 0.03 mmol/L. For the same compound, the “[LDL] Median CFB” value [35] was 0.03 mmol/L, the “[LDL] Mean CFB” value [36] was 0.13 mmol/L and the “[LDL] Median CFB” value [36] was 0.17 mmol/L. For the same compound, the “[LDL] Mean CFB” value [37] was 0.07 mmol/L, the “[LDL] Median CFB” value [37] was 0.16 mmol/L and the “[LDL] Mean CFB” value [38] was 0.13 mmol/L. The “[LDL] Median CFB” value [38] was 0.06 mmol/L, the “[LDL] Mean CFB” value [39] was -0.01 mmol/L and the “[LDL] Median CFB” value [39] was 0.22 mmol/L. For the same compound, the “[LDL] Mean percentage CFB - 24 weeks results” value (from here on “[LDL] Mean percentage CFB”) (increased from 25 mg b.i.d. to 50 mg b.i.d at 12 weeks, week 1) was 2.10%, the “[LDL] Mean percentage CFB” value (increased from 25 mg b.i.d. to 50 mg b.i.d at 12 weeks, week 2) was 4.27% and the “[LDL] Mean percentage CFB” value (increased from 25 mg b.i.d. to 50 mg b.i.d at 12 weeks, week 4) was −3.29%. For the same compound, the “[LDL] Mean percentage CFB” value (increased from 25 mg b.i.d. to 50 mg b.i.d at 12 weeks, week 8) was −5.79%, the “[LDL] Mean percentage CFB” value (increased from 25 mg b.i.d. to 50 mg b.i.d at 12 weeks, week 12) was −0.19% and the “[LDL] Mean percentage CFB” value (increased from 25 mg b.i.d. to 50 mg b.i.d at 12 weeks, week 16) was 3.55%. The “[LDL] Mean percentage CFB” value (increased from 25 mg b.i.d. to 50 mg b.i.d at 12 weeks, week 20) was −8.82%, the “[LDL] Mean percentage CFB” value (increased from 25 mg b.i.d. to 50 mg b.i.d at 12 weeks, week 24) was 2.65% and the “[LDL] Mean percentage CFB” value (increased from 50 mg q.d. to 100 mg q.d. at 12 weeks, week 1) was 0.31%. For the same compound, the “[LDL] Mean percentage CFB” value (increased from 50 mg q.d. to 100 mg q.d. at 12 weeks, week 2) was 4.52%, the “[LDL] Mean percentage CFB” value (increased from 50 mg q.d. to 100 mg q.d. at 12 weeks, week 4) was −1.68% and the “[LDL] Mean percentage CFB” value (increased from 50 mg q.d. to 100 mg q.d. at 12 weeks, week 8) was 1.20%. For the same compound, the “[LDL] Mean percentage CFB” value (increased from 50 mg q.d. to 100 mg q.d. at 12 weeks, week 12) was 2.96%, the “[LDL] Mean percentage CFB” value (increased from 50 mg q.d. to 100 mg q.d. at 12 weeks, week 16) was 4.69% and the “[LDL] Mean percentage CFB” value (increased from 50 mg q.d. to 100 mg q.d. at 12 weeks, week 20) was 3.51%. The “[LDL] Mean percentage CFB” value (increased from 50 mg q.d. to 100 mg q.d. at 12 weeks, week 24) was 4.92%, the “[LDL] Mean percentage CFB” value (placebo switched to 50 mg b.i.d at week 12, week 16) was 4.13% and the “[LDL] Mean percentage CFB” value (placebo switched to 50 mg b.i.d at week 12, week 20) was 6.69%. The “[LDL] Mean percentage CFB” value (placebo switched to 50 mg b.i.d at week 12, week 24) was 2.68%, the “[LDL] Mean percentage CFB” value (placebo switched to 100 mg q.d. at week 12, week 16) was −2.85% and the “[LDL] Mean percentage CFB” value (placebo switched to 100 mg q.d. at week 12, week 20) was −1.07%. The “[LDL] Mean percentage CFB” value (placebo switched to 100 mg q.d. at week 12, week 24) was −8.19%.
